According to patent US6569846B1, “Palladium-substituted bacteriochlorophyll derivatives and use thereof” (Yeda Research and Development Co. Ltd., priority 1998, dated 2003):
“And” between values parts separate entries of the source, which are not always exact repeats. Equal values may be shown once.

How the values were obtained:
[1] = Stability of Pd-BPheid solutions by HPLC profile; assay type: physicochemical
Experimental: A reverse phase HPLC method was developed to characterize the impurity profile and quantify the Palladium-BPheid.
Solutions of Pd-BPheid stored in acetone at −20° C. were stable for at least 2-month period.

[2] = test system: L1210 murine leukemia cells; assay: In vitro phototoxicity on L1210 cells (MTT); assay type: cell-based; conditions: 1 μM, 30 min at 37° C.
Experimental: (i) Cell lines. The murine leukemia cell line (L1210) was maintained in suspension culture using Fischer's medium supplemented with 10% horse serum, 1 mM glutamine, 1 mM mercaptoethanol and gentamicin. The RIF (Radiation induced Fibrosarcoma) tumor was maintained as specified by Twentyman et al. (1980, “A new mouse tumor model system (RIF-1) for comparison of end-point studies”, J. Natl. Cancer Inst., 64, 595-604). Cultures were grown in Weymouth's medium containing 10% fetal calf serum and gentamycin.
(ii) In vitro phototoxicity. For studies on phototoxicity involving L1210 and RIF cells, light was provided by a 600 watt quartz-halogen source filtered with 10 cm of water and a 850 nm cut-off filter to remove IR. […] […] The cells were then washed free from the sensitizer, and transferred to fresh media. Irradiations were carried out at 10° C. For some studies, the cells were then labeled with fluorescent probes and sites of photodamage were assessed. In other studies, the cells were then incubated for 60 min at 37° C. in fresh medium to allow apoptosis to proceed. Viability studies were carried out using 96-well plates and a 72-hour MTT assay, in quadruplicate.
(iii) Cell Viability. Cell survival was assessed by the MTT reaction carried out 3 days after plating of 1,000-50,000 cells in 96 well plates. […] Absorbance at x nm was determined with a BioRad Plate reader. […]

C3H/BA mammary carcinoma = assay: In vivo PDT of BA mammary carcinoma; parameters: key to Summary (cures), symbol: −: no response
Experimental: (§1) Photodynamic therapy parameters: Mice with tumors measuring 5-7 mm in diameter were entered into PDT experiments. Three Pd-BPheid drug doses (1, 5 and 10 mg/kg) and two light doses (100 and 300 Joules/sq.cm) were evaluated. A formulation of Pd-BPheid dissolved in Cremophor was administered by i.v. tail injection. PDT light exposure was started either 15 minutes, 1 hour or 4 hours following injection. […] A titanium sapphire laser tuned to 757 nm was used as the light source for PDT. Laser generated light was coupled into quartz fibers for delivery of light to tumors. A light power density of 75 mW/sq.cm was used. Tumor size was measured 3 days per week following PDT treatments and the percentage of tumor cures (defined as no tumor recurrence for 40 days post treatment) was determined.
(§2) In vivo PDT Response: Tables 4 and 5 hereinafter provide summaries of the PDT treatment results for C3H mice transplanted with either the BA mammary carcinoma or the RIF-1 fibrosarcoma. Each table indicates the following parameters: 1) intravenous drug dose expressed in mg/kg; 2) laser treatment parameters, including the total light dose (J/cm^2), the wavelength (757 nm), the light dose rate (mW/cm^2), and the time interval ([…], 4) toxicity (four mice died shortly after treatment), 5) tumor regrowth (consisting of the number of days between PDT treatment and tumor recurrence) and 6) the number of mice (and percentage) with Pd-BPheid PDT induced tumor cures.

RIF-1 fibrosarcoma = assay: In vivo PDT of RIF-1 fibrosarcoma; parameters: key to Summary (cures), symbol: −: no response
Experimental: as §1, §2

[3] = 1 mg/Kg i.v., 300 J/cm^2, 757 nm, 75 mW/cm^2, 15 min. interval
[4] = 5 mg/Kg i.v., 300 J/cm^2, 757 nm, 75 mW/cm^2, 1 HR interval
[5] = 5 mg/Kg i.v., 300 J/cm^2, 757 nm, 75 mW/cm^2, 15 min. interval
[6] = 10 mg/Kg i.v., 100 J/cm^2, 757 nm, 75 mW/cm^2, 1 HR interval
[7] = 10 mg/Kg i.v., 100 J/cm^2, 757 nm, 75 mW/cm^2, 15 min. interval
[8] = 10 mg/Kg i.v., 300 J/cm^2, 757 nm, 75 mW/cm^2, 1 HR interval
[9] = 10 mg/Kg i.v., 300 J/cm^2, 757 nm, 75 mW/cm^2, 4 HR interval
[10] = 4-hour interval between drug administration and light treatment
[11] = light treatments initiated within 1 hour of drug administration
[12] = 5 mg/Kg i.v., 300 J/cm^2, 757 nm, 75 mW/cm^2, 1 HR. interval
[13] = 10 mg/Kg i.v., 300 J/cm^2, 757 nm, 75 mW/cm^2, 15 min. interval

## CC[C@H]1C2=NC(=Cc3c(C(C)=O)c(C)c4[n]3[Pd][n]3c(c(C)c5c3=C(C3=NC(=C4)[C@@H](C)[C@@H]3CCC(=O)O)[C@@H](C(=O)OC)C5=O)=C2)[C@@H]1C [Pd-BPheid, Pd-bacteriopheophorbide a]
[1]; stock solution at room temperature for 18 hours
  change in the HPLC profile: no change in the HPLC profile
[1]; stored in acetone at −20° C.
  period for which solutions were stable: at least 2 month
[2]; 75 mJ/cm^2 light at 760±5 nm
  cell killing: 50%
[2]; light at 760±5 nm
  dose of light resulting in 50% cell killing: 75 mJ/cm^2
C3H/BA mammary carcinoma; [3]
  Number of Animals with Primary Tumor Regrowth (Days to Recurrence): 1(1 day)
  Summary (cures), symbol: −
  Toxicity (Treatment associated death): 0
C3H/BA mammary carcinoma; [4]
  Number of Animals with Primary Tumor Regrowth (Days to Recurrence): 1(11 days)
  Summary (cures) %: 66.66%
  Summary (cures), number of animals (days): 2(41 days)
  Toxicity (Treatment associated death): 0
C3H/BA mammary carcinoma; [5]
  Summary (cures) %: 100%
  Summary (cures), number of animals (days): 2(40 days)
  Toxicity (Treatment associated death): 0
C3H/BA mammary carcinoma; [6]
  Number of Animals with Primary Tumor Regrowth (Days to Recurrence): 1(5 days)
  Summary (cures) %: 66.66%
  Summary (cures), number of animals (days): 2(40 days)
  Toxicity (Treatment associated death): 0
C3H/BA mammary carcinoma; [7]
  Summary (cures) %: 100%
  Summary (cures), number of animals (days): 2(42 days)
  Toxicity (Treatment associated death): 0
C3H/BA mammary carcinoma; [8]
  Summary (cures) %: 100%
  Summary (cures), number of animals (days): 2(41 days) and 1(41 days)
  Toxicity (Treatment associated death): 0
C3H/BA mammary carcinoma; [9]
  Number of Animals with Primary Tumor Regrowth (Days to Recurrence): 2(1 day)
  Summary (cures), symbol: −
  Toxicity (Treatment associated death): 0
C3H/BA mammary carcinoma; [10]
  effectiveness of PDT: not effective
C3H/BA mammary carcinoma; comparable PDT treatments
  responsiveness of BA mammary carcinoma compared with RIF-1 fibrosarcoma: more responsive
C3H/BA mammary carcinoma; [11]
  effectiveness of PDT: effective
RIF-1 fibrosarcoma; [3]
  Number of Animals with Primary Tumor Regrowth (Days to Recurrence): 2(1 day)
  Summary (cures), symbol: −
  Toxicity (Treatment associated death): 0
RIF-1 fibrosarcoma; [12]
  Number of Animals with Primary Tumor Regrowth (Days to Recurrence): 1(4 days) and 1(2 days) and 1(7 days)
  Toxicity (Treatment associated death): 0
RIF-1 fibrosarcoma; [5]
  Number of Animals with Primary Tumor Regrowth (Days to Recurrence): 1(5 days) and 1(12 days)
  Summary (cures) %: 33.33%
  Summary (cures), number of animals (days): 1(40 days)
  Toxicity (Treatment associated death): 0
RIF-1 fibrosarcoma; [6]
  Number of Animals with Primary Tumor Regrowth (Days to Recurrence): 2(3 days) and 1(6 days)
  Toxicity (Treatment associated death): 0
RIF-1 fibrosarcoma; [7]
  Number of Animals with Primary Tumor Regrowth (Days to Recurrence): 2(12 days) and 1(7 days)
  Toxicity (Treatment associated death): 0
RIF-1 fibrosarcoma; [8]
  Number of Animals with Primary Tumor Regrowth (Days to Recurrence): 1(20 days)
  Summary (cures) %: 25.00%
  Summary (cures), number of animals (days): 1(40 days)
  Toxicity (Treatment associated death): 2
  Toxicity (Treatment associated death), number of animals (day): 2(1 day)
RIF-1 fibrosarcoma; [9]
  Summary (cures), symbol: −
  Toxicity (Treatment associated death): 0
RIF-1 fibrosarcoma; [13]
  Summary (cures) %: 33.33%
  Toxicity (Treatment associated death): 2
  Toxicity (Treatment associated death), number of animals (day): 2(1 day)
RIF-1 fibrosarcoma; [10]
  effectiveness of PDT: not effective
RIF-1 fibrosarcoma; [11]
  effectiveness of PDT: effective
